Experimental data from US12195424B2, “Antibiotic compounds” (The General Hospital Corporation, priority 2017, dated 2025).
Like-named read-outs stand apart in the source and are kept apart here.

Assays:
[1] = test system: S. aureus MW2; test: Deep-seated mouse thigh infection model; format: in vivo, mice; settings: every 12 h for 3 days, p<0.001
Method: Deep-seated mouse thigh infection model for evaluating drug efficacy. A previously described protocol to mimic a chronic, deep-tissue infection was used with modifications. Six-week-old female CD1 ICR outbred mice (20-25 g) were obtained from Charles River Laboratories (Wilmington, MA, USA). To make mice neutropenic, 150 mg/kg and 100 mg/kg of cyclophosphamide were administered via i.p. injection at 4 days and 1 day before infection, respectively. On the day of infection, ˜10^5 cells of stationary-phase S. aureus MW2 suspended in 50 μl of saline were injected to the right thigh of each mouse. To test the efficacy of CD437, the compound was dissolved in a 1:1 solution of Kolliphor EL (Sigma-Aldrich, St Louis, MO, USA) and ethanol and then diluted 1:10 in saline to a final concentration of […]. […] At 24 h post-infection, groups of mice (n=10) were treated with 30 mg/kg gentamicin subcutaneously (s.c.), 25 mg/kg vancomycin i.p., 20 mg/kg CD437 i.p., or a combination of 20 mg/kg CD437 i.p. and 30 mg/kg gentamicin s.c. every 12 h for 3 days. Control mice were injected with 200 μl of 10% Kolliphor EL/ethanol in saline i.p. every 12 h for 3 days. For testing the efficacy of Analog 2, the compound was dissolved in a 1:1 solution of Kolliphor EL (Sigma-Aldrich, St Louis, MO, USA) and ethanol and then diluted 1:10 in saline to a final concentration of 4 mg/ml. […] Serum was analyzed for alanine aminotransferase and urea nitrogen content with commercially available kits, following the manufacturer's protocol (Pointe Scientific, Canton, MI, USA). […] The bacterial burden was recorded as CFU/g tissue. A sample size of 10 mice per group was calculated for a single-tailed power analysis using a standard deviation based on our historical data and the literature in consultation with the Rhode Island Hospital Biostatistics Core. […] Statistical significance among each group was analyzed by one-way ANOVA with post-hoc Tukey test using PASW Statistics 18 (SPSS Inc. Chicago, IL, USA) and GraphPad Prism 7 (GraphPad Software, La Jolla, CA, USA).

[2] = test system: MRSA MW2 persisters; test: Persister killing assay; format: cell-based, S. aureus; settings: MRSA persisters, in words
Method: Persister killing assay. […] Persistency of stationary-phase S. aureus VRS1 was evaluated by treating with 100×MIC daptomycin and 100×MIC linezolid, because the strain is resistant to vancomycin, gentamicin, ciprofloxacin, and rifampicin. We prepared persister cells of the 13 S. aureus strains by growing cultures overnight to stationary phase at 37° C. at 225 rpm. The overnight cultures were washed three times with PBS and diluted to ˜5×10^7 ? CFU/ml with the same buffer. 2 ml of the persister suspension containing appropriate concentrations of antibiotics was added to the wells of a 96-well assay block (Corning Costar 3960) and incubated at 37° C., with shaking at 225 rpm. At specific times, 400 μl samples were removed and washed once with PBS to remove the antibiotic. The samples were serially diluted 10^5 fold with PBS and spot-plated onto TSA plates. After incubating the plates overnight (˜18 h) at 37° C., the colonies were counted to enumerate the number of cells. These experiments were conducted in triplicate.

[3] = Pharmacokinetic analysis; format: in vivo, mice; settings: for half-life: 20 mg/kg
Method: Pharmacokinetic analysis. Pharmacokinetic experiments were conducted by SAI Life Sciences Ltd. (Pune, India) in accordance with guidelines provided by the Committee for the Purpose of Control and Supervision of Experiments on Animals (CPCSEA). The Institutional Animal Ethics Committee (IAEC) approved the experimental protocol. In brief, healthy female CD1 mice (6 weeks old) weighing between 20 to 25 g were procured from Hylasco (Hyderabad, India). Analog 2 was dissolved in a 1:1 solution of Kolliphor EL (Sigma-Aldrich, St Louis, MO, USA) and ethanol and then diluted 1:10 in saline to a final concentration of 2 mg/ml. Groups of mice (n=3) were treated with 20 mg/kg Analog 2 (i.p.). Blood samples were collected as terminal a bleed under light isoflurane anesthesia through a cardiac puncture such that samples were obtained at pre-dose, 0.08, 0.25, 0.5, 1, 2, 4, 8 & 24 h. Immediately after collection, plasma was harvested by centrifugation and stored at −70° C. until analysis. All samples were processed for analysis by protein precipitation using acetonitrile and analyzed with fit-for-purpose LC/MS/MS method (LLOQ=4.90 ng/mL for plasma). Pharmacokinetic parameters were calculated using the non-compartmental analysis tool of Phoenix WinNonlin (Version 6.3). No statistical methods were used to predetermine samples size. The experiments were not randomized, and investigators were not blinded to allocation during experiments and outcome assessment. Outliers were determined based on Grubb's test using GraphPad Prism 7 (GraphPad Software, La Jolla, CA, USA).

## OCc1ccc2cc(-c3ccc(O)c(C45CC6CC(CC(C6)C4)C5)c3)ccc2c1 [Analog 2, 2-(adamantan-1-yl)-4-(6-(hydroxymethyl)naphthalen-2-yl)phenol]
[1]; 40 mg/kg i.p. in combination with 30 mg/kg gentamicin s.c.
  decrease in bacterial burden: ~1 log
[1]; 80 mg/kg i.p. alone
  decrease in bacterial burden: ~1 log
[1]; 80 mg/kg i.p. in combination with 30 mg/kg gentamicin s.c.
  decrease in bacterial burden: ~2 log
[2]
  anti-persister activity: retained bacterial activity against MRSA persisters
[3]; female, CD1, mouse, ip, mice, single injection 20 mg/kg i.p., plasma, read-out: AUCinf (area under the curve to infinite)
  AUC(0-inf): 16500 ng·h/mL
[3]; female, CD1, mouse, ip, mice, single injection 20 mg/kg i.p., plasma, read-out: AUClast (area under the curve to last time point)
  AUC(0-t): 16400 ng·h/mL
[3]; female, CD1, mouse, ip, mice, single injection 20 mg/kg i.p., plasma, read-out: Cmax (maximum concentration observed)
  Cmax: 16100 ng/mL
[3]; female, CD1, mouse, ip, mice, single injection 20 mg/kg i.p., plasma, read-out: Tmax (the time taken to reach the maximum concentration)
  Tmax: 0.5 h
[3]; female, CD1, mouse, plasma, ip, intraperitoneal single dose of 20 mg/kg, as stated in Example 3, read-out: elimination half-life (converted)
  half-life: 4.5 h
[3]; female, CD1, mouse, plasma, ip, mice, single injection 20 mg/kg i.p., plasma, read-out: T1/2 (Half-life) (converted)
  half-life: 4.49 h
[3]; intraperitoneal single dose of 20 mg/kg, as stated in Example 3
  maximum plasma concentration: ~10 µg/mL
[3]; mice, single injection 20 mg/kg i.p., plasma
  CL (clearance): 20.16 mL/min/kg
